Reference: patent US20220251081A1, “HETEROBICYCLIC INHIBITORS OF MAT2A AND METHODS OF USE FOR TREATING CANCER” (priority 2019, published 2022)

Columns and labels:
MAT2A homodimer = molecular target: T1, MAT2A homodimer (Homo sapiens, UniProt P31153); test: Biochemical assay: inhibition of recombinant MAT2A homodimer (phosphate release, PiColorLock Gold); conditions: MAT2A IC50 score; read-out: Enzyme Inhibition
T1 construct: inferred from Ni sepharose purification and imidazole elution; made in house; host or cells: Sf9 insect cells, recombinant baculovirus (Bac to Bac, pFASTBAC1 vector)
T1 sequence (P31153 whole entry): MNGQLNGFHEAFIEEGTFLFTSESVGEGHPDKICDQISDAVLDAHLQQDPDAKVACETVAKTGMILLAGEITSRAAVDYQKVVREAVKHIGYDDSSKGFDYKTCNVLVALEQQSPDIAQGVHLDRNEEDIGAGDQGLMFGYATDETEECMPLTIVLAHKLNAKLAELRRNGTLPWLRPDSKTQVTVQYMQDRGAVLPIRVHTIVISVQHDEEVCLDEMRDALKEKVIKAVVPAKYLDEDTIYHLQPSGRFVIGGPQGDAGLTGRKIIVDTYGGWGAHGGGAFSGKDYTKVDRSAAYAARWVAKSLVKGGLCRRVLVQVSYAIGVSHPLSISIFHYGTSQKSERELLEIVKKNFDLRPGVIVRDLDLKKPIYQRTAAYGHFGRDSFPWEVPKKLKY
Outline: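 Baculovirus/Sf9-expressed, Ni-purified MAT2A at 4 μg/mL in pH 8.0 Tris/KCl/MgCl2/EDTA/BSA buffer, preincubated with compound 60 min at 25 °C. Started with ATP and L-methionine substrate mix (500 μM and 40 μM, stock in mix), 60 min at 25 °C; released phosphate by PiColorLock Gold against a phosphate standard curve.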

[1] = test system: SAM in HCT116 human colon carcinoma cell line with deleted MTAP gene; test: Cellular assay of target engagement (SAM): SAM level by LC-MS/MS after 72 hrs; format: cell-based; conditions: HCT-116, IC50 score, read-out: Cell 72 h SAM Inhibition (MTAP −/−)
Outline: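 MTAP-deleted HCT116 cells were seeded, then exposed 24 h later to a 10-point 3-fold compound dilution series for 72 h at 37 °C/5% CO2. They were lysed in cold 80% methanol/acetic acid containing d3-SAM internal standard. SAM was quantified by LC-MS/MS (MRM, m/z 399.2→250.1).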

HCT116 MTAP-/- = test: Inhibition of cellular proliferation, 4 days, Cell Titer Glo, HCT116 MTAP-/-; format: cell-based; conditions: Homo sapiens, HCT-116, 96 h, IC50 score, read-out: 4 Day Relative Growth Inhibition (MTAP −/−)
Outline: (§1)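 Isogenic human colon carcinoma lines differing only in MTAP status, plated 24 h before dosing, then exposed for 4 days at 37 °C/5% CO2 to a 10-point 3-fold dilution series (0.2% DMSO final). Read-out is Cell Titer Glo ATP luminescence, blank-subtracted and normalised to in-plate DMSO control, plotted as % proliferation change versus log molar concentration.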

HCT116 MTAP +/+ = test: Inhibition of cellular proliferation, 4 days, Cell Titer Glo, HCT116 MTAP+/+; format: cell-based; conditions: Homo sapiens, HCT-116, 96 h, IC50 score, read-out: 4 Day Relative Growth Inhibition (MTAP +/+)
Outline: as §1

CCOc1ccc2cc(-c3ccc4nncn4c3)c(=O)n(-c3ccc(OC(F)(F)F)cc3)c2n1 [Example 219]
IC50 (MAT2A homodimer): < 0.1 µM | IC50 [1]: < 0.1 µM | IC50 (HCT116 MTAP-/-): 0.1 to 1 µM | IC50 (HCT116 MTAP +/+): ≥ 1 µM

[2H]C([2H])([2H])Oc1ccc(-n2c(=O)c(-c3ccc4nncn4c3)cc3ccc(OCC(F)F)nc32)cc1 [Example 220]
IC50 (MAT2A homodimer): < 0.1 µM | IC50 [1]: < 0.1 µM | IC50 (HCT116 MTAP-/-): < 0.1 µM | IC50 (HCT116 MTAP +/+): ≥ 1 µM

[2H]C([2H])([2H])Oc1ccc(-n2c(=O)c(-c3ccc4nncn4c3)cc3ccc(OCC)nc32)cc1 [Example 221]
IC50 (MAT2A homodimer): < 0.1 µM | IC50 [1]: < 0.1 µM | IC50 (HCT116 MTAP-/-): < 0.1 µM | IC50 (HCT116 MTAP +/+): ≥ 1 µM

CCOc1ccc2nc(-c3ccc4nn(C)cc4c3)c(=O)n(-c3ccc(Cl)cc3)c2n1 [Example 222, 4-(4-chlorophenyl)-6-ethoxy-2-(2-methyl-2H-indazol-5-yl)pyrido[2,3-b]pyrazin-3(4H)-one]
IC50 (MAT2A homodimer): < 0.1 µM | IC50 [1]: < 0.1 µM | IC50 (HCT116 MTAP-/-): < 0.1 µM | IC50 (HCT116 MTAP +/+): ≥ 1 µM

CCOc1ccc2nc(-c3ccc(OC)cc3)c(=O)n(-c3ccc(OC(F)F)cc3)c2n1 [Example 223]
IC50 (MAT2A homodimer): < 0.1 µM | IC50 [1]: 0.1 to 1 µM | IC50 (HCT116 MTAP-/-): 0.1 to 1 µM | IC50 (HCT116 MTAP +/+): ≥ 1 µM

CCOc1ccc2nc(-c3ccc4nn(C)cc4c3)c(=O)n(-c3ccc(OC(F)F)cc3)c2n1 [Example 224]
IC50 (MAT2A homodimer): < 0.1 µM | IC50 [1]: < 0.1 µM | IC50 (HCT116 MTAP-/-): < 0.1 µM | IC50 (HCT116 MTAP +/+): 0.1 to 1 µM

Cn1cc2cc(-c3nc4ccc(NCC(F)(F)F)nc4n(-c4ccc(OC(F)F)cc4)c3=O)ccc2n1 [Example 225]
IC50 (MAT2A homodimer): < 0.1 µM | IC50 [1]: < 0.1 µM | IC50 (HCT116 MTAP-/-): < 0.1 µM | IC50 (HCT116 MTAP +/+): ≥ 1 µM

Cn1cc2cc(-c3nc4ccc(NCC(F)(F)F)nc4n(-c4ccc(Cl)cc4)c3=O)ccc2n1 [Example 226]
IC50 (MAT2A homodimer): < 0.1 µM | IC50 [1]: < 0.1 µM | IC50 (HCT116 MTAP-/-): < 0.1 µM | IC50 (HCT116 MTAP +/+): ≥ 1 µM

COc1ccc(-c2nc3ccc(NCC(F)(F)F)nc3n(-c3ccc(OC(F)F)cc3)c2=O)cc1 [Example 227]
IC50 (MAT2A homodimer): < 0.1 µM | IC50 [1]: < 0.1 µM | IC50 (HCT116 MTAP-/-): < 0.1 µM | IC50 (HCT116 MTAP +/+): ≥ 1 µM

Cn1cc2cc(-c3nc4ccc(OCC(F)F)nc4n(-c4ccc(OC(F)F)cc4)c3=O)ccc2n1 [Example 228]
IC50 (MAT2A homodimer): < 0.1 µM | IC50 [1]: < 0.1 µM | IC50 (HCT116 MTAP-/-): < 0.1 µM | IC50 (HCT116 MTAP +/+): ≥ 1 µM

CCOc1cnc2cc(-c3ccc4nn(C)cc4c3)c(=O)n(-c3ccc(Cl)cc3)c2n1 [Example 229, 5-(4-chlorophenyl)-3-ethoxy-7-(2-methyl-2H-indazol-5-yl)pyrido[2,3-b]pyrazin-6(5H)-one]
IC50 (MAT2A homodimer): < 0.1 µM | IC50 [1]: < 0.1 µM | IC50 (HCT116 MTAP-/-): < 0.1 µM | IC50 (HCT116 MTAP +/+): ≥ 1 µM

CCOc1cnc2cc(-c3ccc(OC)cc3)c(=O)n(-c3ccc(OC(F)F)cc3)c2n1 [Example 230]
IC50 (MAT2A homodimer): < 0.1 µM | IC50 [1]: < 0.1 µM | IC50 (HCT116 MTAP-/-): 0.1 to 1 µM | IC50 (HCT116 MTAP +/+): 0.1 to 1 µM

CCOc1cnc2cc(-c3ccc4nn(C)cc4c3)c(=O)n(-c3ccc(OC(F)F)cc3)c2n1 [Example 231]
IC50 (MAT2A homodimer): < 0.1 µM | IC50 [1]: < 0.1 µM | IC50 (HCT116 MTAP-/-): < 0.1 µM | IC50 (HCT116 MTAP +/+): 0.1 to 1 µM

COc1ccc(-c2cc3cnc(NCC(F)(F)F)nc3n(-c3ccc(Br)cc3)c2=O)cc1 [Example 232, 8-(4-bromophenyl)-6-(4-methoxyphenyl)-2-(2,2,2-trifluoroethylamino)pyrido[2,3-d]pyrimidin-7(8H)-one]
IC50 (MAT2A homodimer): < 0.1 µM | IC50 [1]: < 0.1 µM | IC50 (HCT116 MTAP-/-): 0.1 to 1 µM | IC50 (HCT116 MTAP +/+): ≥ 1 µM

COc1ccc(-c2cc3cnc(NCC(F)(F)F)nc3n(-c3ccc(-c4ccn[nH]4)cc3)c2=O)cc1 [Example 233, 8-(4-(1H-pyrazol-5-yl)phenyl)-6-(4-methoxyphenyl)-2-(2,2,2-trifluoroethylamino)pyrido[2,3-d]pyrimidin-7(8H)-one]
IC50 (MAT2A homodimer): < 0.1 µM | IC50 [1]: < 0.1 µM | IC50 (HCT116 MTAP-/-): < 0.1 µM | IC50 (HCT116 MTAP +/+): ≥ 1 µM

COc1ccc(-n2c(=O)c(-c3ccc(=O)[nH]c3)cc3cnc(NCC(F)(F)F)nc32)cc1 [Example 235, 8-(4-methoxyphenyl)-6-(6-oxo-1,6-dihydropyridin-3-yl)-2-(2,2,2-trifluoroethylamino)pyrido[2,3-d]pyrimidin-7(8H)-one]
IC50 (MAT2A homodimer): < 0.1 µM | IC50 [1]: 0.1 to 1 µM | IC50 (HCT116 MTAP-/-): 0.1 to 1 µM | IC50 (HCT116 MTAP +/+): ≥ 1 µM

CCCc1ccc2cc(-c3ccc4nn(C)cc4c3)c(=O)n(-c3ccc(Cl)cc3)c2n1 [Example 236, 1-(4-chlorophenyl)-3-(2-methyl-2H-indazol-5-yl)-7-propyl-1,8-naphthyridin-2(1H)-one]
IC50 (MAT2A homodimer): < 0.1 µM | IC50 [1]: < 0.1 µM | IC50 (HCT116 MTAP-/-): < 0.1 µM | IC50 (HCT116 MTAP +/+): ≥ 1 µM

COc1ccc(-c2cc3ncc(NCC(F)(F)F)nc3n(-c3ccc(OC(F)F)cc3)c2=O)cc1 [Example 237, 5-(4-(difluoromethoxy)phenyl)-7-(4-methoxyphenyl)-3-((2,2,2-trifluoroethyl)amino)pyrido[2,3-b]pyrazin-6(5H)-one]
IC50 (MAT2A homodimer): < 0.1 µM | IC50 [1]: < 0.1 µM | IC50 (HCT116 MTAP-/-): < 0.1 µM | IC50 (HCT116 MTAP +/+): ≥ 1 µM
